By Km is commonly meant the substrate concentration at which the rate is half of its maximum.

Residue numbers refer to the chain shown, from its start. Names may count otherwise.

From publication PMC4365076, “The phage growth limitation system in Streptomyces coelicolor A(3)2 is a toxin/antitoxin system, comprising enzymes with DNA methyltransferase, protein kinase and ATPase activity” (Virology, 2015) come the findings set out here.

The target in one data set is T1, PglX (PglX–His6) (Streptomyces coelicolor, UniProt Q8CJM2).
T1 construct: NPPY motif at 378–381
T1 sequence (Q8CJM2 1-1210): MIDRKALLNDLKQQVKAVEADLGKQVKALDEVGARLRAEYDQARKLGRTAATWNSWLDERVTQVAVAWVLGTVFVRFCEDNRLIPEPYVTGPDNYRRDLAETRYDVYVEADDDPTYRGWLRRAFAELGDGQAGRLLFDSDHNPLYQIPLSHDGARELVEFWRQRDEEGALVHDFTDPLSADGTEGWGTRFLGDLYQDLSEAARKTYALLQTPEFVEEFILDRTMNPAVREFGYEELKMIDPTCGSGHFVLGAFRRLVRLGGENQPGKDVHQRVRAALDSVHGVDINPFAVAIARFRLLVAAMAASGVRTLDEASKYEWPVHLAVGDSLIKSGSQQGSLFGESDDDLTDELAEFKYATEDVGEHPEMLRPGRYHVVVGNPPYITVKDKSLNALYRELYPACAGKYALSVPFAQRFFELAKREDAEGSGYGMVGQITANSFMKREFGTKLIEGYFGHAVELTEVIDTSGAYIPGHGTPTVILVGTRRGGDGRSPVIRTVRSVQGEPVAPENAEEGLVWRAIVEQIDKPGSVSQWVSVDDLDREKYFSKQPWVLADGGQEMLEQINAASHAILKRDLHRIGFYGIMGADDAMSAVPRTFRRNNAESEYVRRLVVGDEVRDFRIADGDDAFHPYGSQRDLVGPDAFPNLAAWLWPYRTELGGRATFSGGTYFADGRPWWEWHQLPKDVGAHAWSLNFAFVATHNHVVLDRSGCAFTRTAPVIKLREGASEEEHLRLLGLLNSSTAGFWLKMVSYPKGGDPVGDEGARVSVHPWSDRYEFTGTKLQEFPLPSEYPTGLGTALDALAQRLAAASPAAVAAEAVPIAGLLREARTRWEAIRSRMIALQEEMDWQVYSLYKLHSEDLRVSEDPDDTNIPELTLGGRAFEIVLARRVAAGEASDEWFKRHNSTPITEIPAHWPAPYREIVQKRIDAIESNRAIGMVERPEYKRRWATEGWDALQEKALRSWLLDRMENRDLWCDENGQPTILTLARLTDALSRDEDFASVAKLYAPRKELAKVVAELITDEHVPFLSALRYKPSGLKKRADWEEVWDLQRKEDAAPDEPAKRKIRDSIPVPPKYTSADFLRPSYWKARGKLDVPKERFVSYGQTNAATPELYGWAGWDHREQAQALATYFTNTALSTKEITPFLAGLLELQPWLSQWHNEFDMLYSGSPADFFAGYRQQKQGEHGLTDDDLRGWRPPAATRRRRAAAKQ
Put plainly: 3H-methyl incorporation into DNA, scintillation counting. The data set is classed as biochemical. Conditions: 12 μM labelled compound, phage ϕC31 DNA co-substrate, 1 mM EDTA, pH 7.5, 30 °C; partially purified enzyme.

In a further data set the target is T2, PglY (His6–PglY) (Streptomyces coelicolor, UniProt O86682).
T2 construct: ~160 kDa band, MALDI-TOF identified; Walker A GSFGSGKS at 75–82
T2 sequence (O86682 1-1294): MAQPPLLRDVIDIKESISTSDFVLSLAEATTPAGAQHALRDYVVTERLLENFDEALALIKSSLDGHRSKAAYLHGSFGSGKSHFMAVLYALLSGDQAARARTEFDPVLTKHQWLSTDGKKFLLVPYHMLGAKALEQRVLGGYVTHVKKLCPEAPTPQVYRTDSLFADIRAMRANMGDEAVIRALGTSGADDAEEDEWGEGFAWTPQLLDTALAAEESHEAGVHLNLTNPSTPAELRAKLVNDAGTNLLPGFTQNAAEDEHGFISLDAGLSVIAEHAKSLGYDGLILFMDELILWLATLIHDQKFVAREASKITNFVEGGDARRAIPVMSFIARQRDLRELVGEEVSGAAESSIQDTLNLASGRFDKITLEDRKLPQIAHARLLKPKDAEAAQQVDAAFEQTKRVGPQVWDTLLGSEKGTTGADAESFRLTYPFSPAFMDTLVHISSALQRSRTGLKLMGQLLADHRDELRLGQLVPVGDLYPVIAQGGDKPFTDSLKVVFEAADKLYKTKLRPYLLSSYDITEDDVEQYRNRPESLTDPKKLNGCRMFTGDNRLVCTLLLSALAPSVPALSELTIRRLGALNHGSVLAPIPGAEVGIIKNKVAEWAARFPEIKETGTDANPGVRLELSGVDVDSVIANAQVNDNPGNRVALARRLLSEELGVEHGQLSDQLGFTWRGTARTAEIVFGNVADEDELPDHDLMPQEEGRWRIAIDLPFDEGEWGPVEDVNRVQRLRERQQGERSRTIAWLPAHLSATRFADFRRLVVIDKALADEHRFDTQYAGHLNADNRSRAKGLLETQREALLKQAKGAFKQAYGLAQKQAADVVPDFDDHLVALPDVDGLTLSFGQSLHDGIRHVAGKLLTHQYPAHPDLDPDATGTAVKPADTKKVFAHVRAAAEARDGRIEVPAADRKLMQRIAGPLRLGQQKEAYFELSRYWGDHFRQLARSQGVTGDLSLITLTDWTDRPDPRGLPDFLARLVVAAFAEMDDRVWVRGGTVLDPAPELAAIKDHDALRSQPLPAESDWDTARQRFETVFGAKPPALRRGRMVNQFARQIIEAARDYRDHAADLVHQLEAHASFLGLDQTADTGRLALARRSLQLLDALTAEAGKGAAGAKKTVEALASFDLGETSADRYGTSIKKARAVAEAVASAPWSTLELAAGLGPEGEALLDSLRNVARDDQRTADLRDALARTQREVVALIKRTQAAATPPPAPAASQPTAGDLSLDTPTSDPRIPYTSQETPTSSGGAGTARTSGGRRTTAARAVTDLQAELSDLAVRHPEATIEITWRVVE
Put plainly: inhibition of ATP hydrolysis, Pi release, malachite green. Type of data set: biochemical. Conditions: 1–3 mM ADP-NP against 1–3 mM ATP; 30 °C, pH 8.0, 10 mM MgCl2.

Substrate in data set [1]: Nc1ncnc2c1ncn2[C@@H]1O[C@H](COP(=O)(O)OP(=O)(O)OP(=O)(O)O)[C@@H](O)[C@H]1O
Put plainly: Pi release, malachite green. Type of data set: biochemical, Streptomyces coelicolor. Conditions: 30 °C, 40 mM HEPES pH 8.0, 10 mM MgCl2, 10 mM DTT, 0.1 mg/ml BSA.

In the case of `C[S+](CC[C@H](N)C(=O)O)C[C@H]1O[C@@H](n2cnc3c(N)ncnc32)[C@H](O)[C@@H]1O` (stereo partly shown) [AdoMet], on PglX (PglX–His6), the “3H-methyl incorporation into DNA, scintillation counting” value is reported as “incorporation of label into TCA precipitable material was dependent on DNA addition”. As for `Nc1ncnc2c1ncn2[C@@H]1O[C@H](COP(=O)(O)OP(=O)(O)NP(=O)(O)O)[C@@H](O)[C@H]1O` [ADP-NP], at PglY (His6–PglY), the “inhibition of ATP hydrolysis, Pi release, malachite green” value is “severely inhibited rate of hydrolysis of ATP, indicative of ADP-NP binding and inhibition of activity”.

B1: PglY (His6–PglY) (Streptomyces coelicolor A3(2)) (protein)
chain: T2 sequence (O86682 1-1294)
notes: ~160 kDa band, MALDI-TOF identified; Walker A GSFGSGKS at 75–82
Regarding B1, the Km in data set [1] was 0.5 mM.

B2: PglY (His6–PglY) (Streptomyces coelicolor A3(2); K81A/S82A) (protein)
chain: T2 sequence (O86682 1-1294) with K81A, S82A
notes: as for B1
In the case of B2, the Michaelis-Menten constant (Km) in data set [1] (Walker A double mutant) is 100 mM.
